US20100256105A1, “NOVEL COMPOUNDS” (AstraZeneca R&D, priority 2009, published 2010)
pIC50: −log10 of the molar value.

Target: T1, recombinant human GR (Homo sapiens, UniProt P04150)
T1 construct: purchased Panvera/Invitrogen P2812 (kit P2893)
T1 sequence (P04150 1-777): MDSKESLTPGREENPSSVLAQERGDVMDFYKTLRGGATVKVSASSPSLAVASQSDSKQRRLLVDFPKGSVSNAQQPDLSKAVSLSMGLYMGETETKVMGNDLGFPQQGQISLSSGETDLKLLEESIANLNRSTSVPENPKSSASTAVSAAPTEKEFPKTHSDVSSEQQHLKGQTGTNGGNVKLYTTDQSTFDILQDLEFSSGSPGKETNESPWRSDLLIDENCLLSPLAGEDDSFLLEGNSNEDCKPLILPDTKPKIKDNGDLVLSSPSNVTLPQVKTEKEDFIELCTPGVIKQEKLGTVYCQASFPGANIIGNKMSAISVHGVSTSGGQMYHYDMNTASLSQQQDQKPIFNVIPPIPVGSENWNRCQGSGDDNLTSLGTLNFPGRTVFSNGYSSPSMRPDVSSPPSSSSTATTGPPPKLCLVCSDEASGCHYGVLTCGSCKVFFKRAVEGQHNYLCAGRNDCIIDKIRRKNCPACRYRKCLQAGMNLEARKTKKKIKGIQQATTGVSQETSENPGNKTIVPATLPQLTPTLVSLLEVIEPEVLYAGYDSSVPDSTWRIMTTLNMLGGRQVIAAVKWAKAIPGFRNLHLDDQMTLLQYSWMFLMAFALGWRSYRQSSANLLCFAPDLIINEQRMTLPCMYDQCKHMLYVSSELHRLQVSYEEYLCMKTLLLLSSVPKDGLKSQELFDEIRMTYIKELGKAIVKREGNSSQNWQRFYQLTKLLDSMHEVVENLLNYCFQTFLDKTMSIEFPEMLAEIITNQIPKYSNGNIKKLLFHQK
Assay: Human Glucocorticoid Receptor (GR) Assay, fluorescence polarization
Details: GS Red tracer, 2 hours at room temperature, 100% control 10 μM Dexamethasone, read-out: Inhibition of GR binding, IC50
Description: Human Glucocorticoid Receptor (GR) Assay The assay is based on a commercial kit from Panvera/Invitrogen (Part number P2893). The assay technology is fluorescence polarization. The kit utilises recombinant human GR (Panvera, Part number P2812), a Fluoromone™ labelled tracer (GS Red, Panvera, Part number P2894) and a Stabilizing Peptide 10× (Panvera, Part number P2815). The GR and Stabilizing Peptide reagents are stored at −70° C. while the GS Red is stored at −20° C. Also included in the kit are 1M DTT (Panvera, Part number P2325, stored at −20° C.) and GR Screening buffer 10× (Panvera, Part number P2814, stored at −70° C. initially but once thawed stored at room temperature). Avoid repeated freeze/thaws for all reagents. The GR Screening buffer 10× comprises 100 mM potassium phosphate, 200 mM sodium molybdate, 1 mM EDTA and 20% DMSO. Test compounds (1 μL) and controls (1 μL) in 100% DMSO were added to black polystyrene 384-well plates (Greiner low volume black flat-bottom, part number 784076). 0% control was 100% DMSO and 100% control was 10 μM Dexamethasone. Background solution (8 μL; assay buffer 10×, Stabilizing Peptide, DTT and ice cold MQ water) was added to the background wells. GS Red solution (7 μL; assay buffer 10×, Stabilizing Peptide, DTT, GS Red and ice cold water) was added to all wells except background wells. GR solution (7 μL; assay buffer 10×, Stabilizing Peptide, DTT, GR and ice cold water) was added to all wells. The plate was sealed and incubated in a dark at room temperature for 2 hours. The plate was read in an Analyst plate reader (LJL Biosystems/Molecular Devices Corporation) or other similar plate reader capable of recording fluorescence polarization (excitation wavelength 530 nm, emission wavelength 590 nm and a dichroic mirror at 561 nm).

Row | Structure (SMILES) | pIC50
1 | CC1=C[C@@H]2[C@H]([C@@H](O)C[C@@]3(C)[C@H]2CC[C@]3(OC(=O)c2cocn2)C(=O)SCF)[C@@]2(C)Cc3cnn(-c4ccc(F)nc4)c3C=C12 [Example 14, (1R,3aS,3bS,10aR,10bS,11S,12aS)-1-{[(fluoromethyl)sulfanyl]carbonyl}-7-(6-fluoropyridin-3-yl)-11-hydroxy-5,10a,12a-trimethyl-1,2,3,3a,3b,7,10,10a,10b,11,12,12a-dodecahydrocyclopenta[5,6]naphtho [1,2-f]indazol-1-yl 1,3-oxazole-4-carboxylate] | 8.54
2 | CC1=C[C@@H]2[C@H]([C@@H](O)C[C@@]3(C)[C@H]2CC[C@]3(OC(=O)c2cocn2)C(=O)SCC#N)[C@@]2(C)Cc3cnn(-c4ccc(F)nc4)c3C=C12 [Example 15, (1R,3aS,3bS,10aR,10bS,11S,12aS)-1-{[cyanomethyl)sulfanyl]carbonyl}-7-(6-fluoropyridin-3-yl)-11-hydroxy-5,10a,12a-trimethyl-1,2,3,3a,3b,7,10,10a,10b,11,12,12a-dodecahydrocyclopenta[5,6]naphtho [1,2-f]indazol-1-yl 1,3-oxazole-4-carboxylate] | 8.43
3 | COCC(=O)O[C@]1(C(=O)SCF)CC[C@H]2[C@@H]3C=C(C)C4=Cc5c(cnn5-c5ccc(F)nc5)C[C@]4(C)[C@H]3[C@@H](O)C[C@@]21C [Example 16, (1R,3aS,3bS,10aR,11S,12aS)-1-{[(fluoromethyl)sulfanyl]carbonyl}-7-(6-fluoropyridin-3-yl)-11-hydroxy-5,10a,12a-trimethyl-1,2,3,3a,3b,7,10,10a,10b,11,12,12a-dodecahydrocyclopenta[5,6]naphtho [1,2-f]indazol-1-yl methoxyacetate] | 8.82

Other lines, results leading:

Row | pIC50 | Structure (SMILES)
4 | 8.32 | CCC(=O)O[C@]1(C(=O)SCC#N)[C@H](C)C[C@H]2[C@@H]3C=C(C)C4=Cc5c(cnn5-c5ccccc5)C[C@]4(C)[C@H]3[C@@H](O)C[C@@]21C [Example 17, (1R,2R,3aS,3bS,10aR,10bS,11S,12aS)-1-{[(cyanomethyl)sulfanyl]carbonyl}-11-hydroxy-2,5,10a,12a-tetramethyl-7-phenyl-1,2,3,3a,3b,7,10,10a,- 10b,11,12,12a-dodecahydro-cyclopenta[5,6]naphtho[1,2-f]indazol-1-yl propanoate]
5 | 7.92 | CC1=C[C@@H]2[C@H]([C@@H](O)C[C@@]3(C)[C@H]2C[C@@H](C)[C@]3(OC(=O)c2ccco2)C(=O)SCC#N)[C@@]2(C)Cc3cnn(-c4ccccc4)c3C=C12 [Example 18, (1R,2R,3aS,3bS,10aR,10bS,11S,12aS)-1-{[(cyanomethyl)sulfanyl]carbonyl}-11-hydroxy-2,5,10a,12a-tetramethyl-7-phenyl-1,2,3,3a,3b,7,10,10a,- 10b,11,12,12a-dodecahydro-cyclopenta[5,6]naphtho[1,2-f]indazol-1-yl furan-2-carboxylate]
